Test [1] relates to BaF3-FL KIT D816V or BaF3-FL KIT V560G/D816V cell line. As to the kind of experiment: Cell-based assays of c-Kit mutant kinase activity (cell proliferation, ATPlite). Particulars: at least one of the c-kit cell assays of Example 7. Summed up:
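BaF3 cells dependent on transfected full-length human KIT D816V or V560G/D816V (pCI-Neo, CMV promoter) were seeded at 1×10^4 cells/well and exposed to 8-point 1:3 dilutions from 10 μM top (0.2% DMSO) for three days at 37° C. ATPlite luminescence gave cell number; IC50 from concentration-response.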

The next test addresses c-Kit kinase (Homo sapiens (Human), UniProt P10721). The test is described as follows: c-Kit biochemical assay (AlphaScreen kinase activity). Put shortly:
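AlphaScreen: c-Kit phosphorylates biotin-(E4Y)3 (100 nM) at 10 μM ATP, pH 7.2 HEPES buffer with Mg/Mn, 5% DMSO, 1 h room temperature; streptavidin donor and PY30 acceptor beads detect product. Second format: 100 μM ATP, 30 nM biotin-(E4Y)10, pH 7.5. IC50 from 8-point 1:3 dilution curves.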

Molecules are shown by their SMILES. pIC50: −log10 of the molar value.

Chain of c-Kit kinase (P10721 26-976): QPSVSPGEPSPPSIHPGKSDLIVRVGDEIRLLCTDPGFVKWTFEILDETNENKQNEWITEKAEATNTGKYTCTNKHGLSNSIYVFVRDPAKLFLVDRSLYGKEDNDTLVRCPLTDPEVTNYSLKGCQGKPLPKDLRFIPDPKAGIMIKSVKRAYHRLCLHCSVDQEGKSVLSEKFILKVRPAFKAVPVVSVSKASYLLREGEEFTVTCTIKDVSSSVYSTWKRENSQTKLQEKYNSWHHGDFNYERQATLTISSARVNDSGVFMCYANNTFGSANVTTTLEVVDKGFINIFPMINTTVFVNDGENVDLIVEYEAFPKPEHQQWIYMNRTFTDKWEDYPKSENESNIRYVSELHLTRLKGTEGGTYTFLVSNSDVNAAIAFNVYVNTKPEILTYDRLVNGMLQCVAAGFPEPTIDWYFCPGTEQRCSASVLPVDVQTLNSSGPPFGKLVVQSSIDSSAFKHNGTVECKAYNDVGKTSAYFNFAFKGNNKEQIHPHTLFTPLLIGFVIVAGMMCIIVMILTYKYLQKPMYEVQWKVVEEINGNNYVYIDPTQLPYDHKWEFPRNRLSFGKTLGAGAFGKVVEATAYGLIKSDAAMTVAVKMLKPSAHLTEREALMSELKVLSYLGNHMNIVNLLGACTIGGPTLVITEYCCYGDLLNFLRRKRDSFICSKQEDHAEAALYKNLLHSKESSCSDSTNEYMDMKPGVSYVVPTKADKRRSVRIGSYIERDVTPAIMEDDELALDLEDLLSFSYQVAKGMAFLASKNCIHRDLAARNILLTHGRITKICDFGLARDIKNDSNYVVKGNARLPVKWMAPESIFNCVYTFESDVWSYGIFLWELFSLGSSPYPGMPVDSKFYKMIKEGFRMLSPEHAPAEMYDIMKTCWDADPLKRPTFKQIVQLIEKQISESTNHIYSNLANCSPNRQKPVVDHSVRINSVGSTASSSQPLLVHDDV

In turn, `CCOc1ccc(-c2[nH]c(C3(C)CCN(c4ncnc5[nH]c(-c6ccc(C#N)cc6)cc45)CC3)nc2C)cc1` [P-3161, 4-[4-[4-[5-(4-ethoxyphenyl)-4-methyl-1H-imidazol-2-yl]-4-methyl-1-piperidyl]-7H-pyrrolo[2,3-d]pyrimidin-6-yl]benzonitrile] showed a pIC50 in test [1] greater than 5.00. On c-Kit kinase, this molecule yielded an IC50 of 0.0001 to 1 µM.

In test [1], `Cc1nc(C2CCN(c3ncnc4[nH]c(-c5ccc(C#N)cc5)cc34)CC2)[nH]c1-c1ccc(C(F)F)cc1` [P-3162, 4-[4-[4-[5-[4-(difluoromethyl)phenyl]-4-methyl-1H-imidazol-2-yl]-1-piperidyl]-7H-pyrrolo[2,3-d]pyrimidin-6-yl]benzonitrile] gave a pIC50 greater than 5.00. In addition, the IC50 against c-Kit kinase was in the range of 1 to 10 µM.

Molecule `COc1ccc(-c2[nH]c(C3(C)CCN(c4ncnc5[nH]c(-c6ccc(C#N)cc6)cc45)CC3)nc2C)cc1F` [P-3163, 4-[4-[4-[5-(3-fluoro-4-methoxy-phenyl)-4-methyl-1H-imidazol-2-yl]-4-methyl-1-piperidyl]-7H-pyrrolo[2,3-d]pyrimidin-6-yl]benzonitrile] gave a pIC50 in test [1] greater than 5.00. At c-Kit kinase, this molecule showed an IC50 of 0.0001 to 1 µM.

As for `Cc1nc(C2(C)CCN(c3ncnc4[nH]c(-c5ccc(C#N)cc5)cc34)CC2)[nH]c1-c1ccc(C(F)F)cc1` [P-3164, 4-[4-[4-[5-[4-(difluoromethyl)phenyl]-4-methyl-1H-imidazol-2-yl]-4-methyl-1-piperidyl]-7H-pyrrolo[2,3-d]pyrimidin-6-yl]benzonitrile], the pIC50 in test [1] is greater than 5.00. The same molecule had an IC50 against c-Kit kinase of 0.0001 to 1 µM.

In turn, `Cc1cc2c(N3CCC(C)(c4nc(C)c(-c5ccc(C(F)(F)F)cc5)[nH]4)CC3)ncnc2[nH]1` [P-3165, 6-methyl-4-[4-methyl-4-[4-methyl-5-[4-(trifluoromethyl)phenyl]-1H-imidazol-2-yl]-1-piperidyl]-7H-pyrrolo[2,3-d]pyrimidine] showed a pIC50 in test [1] greater than 5.00. In addition, the IC50 at c-Kit kinase was 1 to 10 µM.

For `COc1cccc(-c2[nH]c(C3(C)CCN(c4ncnc5[nH]c(C)cc45)CC3)nc2C)c1` [P-3166, 4-[4-[5-(3-methoxyphenyl)-4-methyl-1H-imidazol-2-yl]-4-methyl-1-piperidyl]-6-methyl-7H-pyrrolo[2,3-d]pyrimidine], the pIC50 in test [1] is greater than 5.00. In addition, the IC50 against c-Kit kinase fell in the range of 1 to 10 µM.

In the case of `COc1cccc(-c2[nH]c(C3(C)CCN(c4ncnc5[nH]c(-c6ccc(C#N)cc6)cc45)CC3)nc2C)c1` [P-3167, 4-[4-[4-[5-(3-methoxyphenyl)-4-methyl-1H-imidazol-2-yl]-4-methyl-1-piperidyl]-7H-pyrrolo[2,3-d]pyrimidin-6-yl]benzonitrile], in test [1], the pIC50 was greater than 5.00. The IC50 against c-Kit kinase lay within 0.0001 to 1 µM.

In test [1], `COc1cccc(-c2[nH]c(C3(C)CCN(c4ncnc5[nH]c(-c6cnn(C(F)F)c6)cc45)CC3)nc2C)c1` [P-3168, 6-[1-(difluoromethyl)pyrazol-4-yl]-4-[4-[5-(3-methoxyphenyl)-4-methyl-1H-imidazol-2-yl]-4-methyl-1-piperidyl]-7H-pyrrolo[2,3-d]pyrimidine] showed a pIC50 greater than 5.00. The IC50 against c-Kit kinase lay within 0.0001 to 1 µM.

`COc1cccc(-c2[nH]c(C3(C)CCN(c4ncnc5[nH]c(-c6ccc(OC)nc6)cc45)CC3)nc2C)c1` [P-3169, 4-[4-[5-(3-methoxyphenyl)-4-methyl-1H-imidazol-2-yl]-4-methyl-1-piperidyl]-6-(6-methoxy-3-pyridyl)-7H-pyrrolo[2,3-d]pyrimidine] had a pIC50 in test [1] greater than 5.00. On c-Kit kinase, the IC50 lay within 0.0001 to 1 µM.

For the molecule `CCOc1ccc(-c2[nH]c(C3(C)CCN(c4ncnc5[nH]c(-c6cnn(C(F)F)c6)cc45)CC3)nc2C)cc1` [P-3170, 6-[1-(difluoromethyl)pyrazol-4-yl]-4-[4-[5-(4-ethoxyphenyl)-4-methyl-1H-imidazol-2-yl]-4-methyl-1-piperidyl]-7H-pyrrolo[2,3-d]pyrimidine], the pIC50 in test [1] is greater than 5.00. In addition, the IC50 at c-Kit kinase fell in the range of 0.0001 to 1 µM.

Molecule `Fc1ccc(-c2cc3c(N4CCC(c5nnc(-c6cccc(OC(F)F)c6)[nH]5)CC4)ncnc3[nH]2)cc1` [P-3204, 4-[4-[5-[3-(difluoromethoxy)phenyl]-4H-1,2,4-triazol-3-yl]-1-piperidyl]-6-(4-fluorophenyl)-7H-pyrrolo[2,3-d]pyrimidine] showed a pIC50 in test [1] greater than 5.00. At c-Kit kinase, this molecule had an IC50 of 10 to 300 µM.

Consider `COc1cc(-c2cc3c(N4CCC(c5nnc(-c6ccc(F)cc6)[nH]5)CC4)ncnc3[nH]2)ccn1` [P-3205, 4-[4-[5-(4-fluorophenyl)-4H-1,2,4-triazol-3-yl]-1-piperidyl]-6-(2-methoxy-4-pyridyl)-7H-pyrrolo[2,3-d]pyrimidine], for which the pIC50 in test [1] is greater than 5.00. The molecule also came in with a half-inhibitory concentration (IC50) against c-Kit kinase of 10 to 300 µM.

Values taken from patent US9771369B2, “Compounds and methods for kinase modulation, and indications therefor” (Plexxikon Inc., priority 2014, dated 2017).
